We go through two molecules from patent US8709385B2, “Poloxamer foamable pharmaceutical compositions with active agents and/or therapeutic cells and uses” (Foamix Ltd., priority 2008, dated 2014).

Read-outs that look alike come from different tables or passages of the source.

The conditions of series [1]: USP 29, cited from earlier work.
Series [2] is described as follows: Solubility and gelling of salicylic acid in Poloxamer 188 solution. The class given is physicochemical. The note with it: 0.50 gr. in 12.5 gr. of 20% Poloxamer 188. From the text: In both vials, 1 & 2, there are 12.5 gr. of 20% Poloxamer 188/purified water stock solution (2.5 gr. Poloxamer 188+10 gr. purified water).
A short description of series [3]: Solubility of 3% sodium diclofenac in Poloxamer 407 in water. In kind it is physicochemical. The conditions noted are these: 3% in 5, 7 and 10 percent of Poloxamer in water, heated to 75° C. and cooled. The procedure:
All 3 concentrations were heated to 75° C. to dissolution and cooled.

Series [4] is described as follows: Microscope observation for crystals of active agent. In kind it is physicochemical. The note with it: Poloxamer 407 at 15% concentration in the formulation. From the text: Poloxamer 407 functions as co-solubilizer ingredient of sodium diclofenac.

For `O=C(O)c1ccccc1O` [Salicylic acid], the solubility in water in series [1] (20° C.) is reported as approximately 0.2%; in series [1] it was 1 gr. in 460 gr. In series [2], the “state of Poloxamer 188 solution with doubled salicylic acid concentration” value is on record as “viscous gel with no fluidity”.

As for `O=C(O)Cc1ccccc1Nc1c(Cl)cccc1Cl` [sodium diclofenac], in series [3], the “crystals after 24 h” value is “crystals were visually observed”. In series [4], the “crystals under the microscope” value is given as “crystals were not observed”.
